System: cancers cell lines
Test: Inhibition test on all kinds of cancer cell lines (overall statement)
Format: cell-based
Conditions: several / various cancer cell lines, Table 18, FIG. 1
Procedure: The cell numbers were counted and reseed as 2×10^6 in cell culture plate/flask. Then, the culture medium were added to a volume of 10 ml, and the cells were cultured for 2-3 days. Then, the cells were suspended for loading into 96-well plates. The number of cells was 3000 and the volume of the culture medium was 100 μl each well.
Removing the original culture medium from 96-well plate. Then add 100 μl of commercially drug at a concentration of 10 μM per well. After 72 hours, add the diluted WST-1 reagent to the well with 100 μl/well, and the diluted WST-1 reagent was acquired from the dilution of 9:1 medium and WST-1 stock reagent. Finally, the total volume of each well was 200 μl/well. Culture the 96-well plate at 37° C. for 30 to 90 minutes. Detecting and calculate the survival rate of each cancer cells with an ELISA reader at OD450 nm.
As a result in the experiments of the present invention.

Q: With `Fc1ccc([C@@H]2CCNC[C@H]2COc2ccc3c(c2)OCO3)cc1` [Paroxetine] as the compound, how does the “inhibitory effect on cancer cell lines (in words)” value read?
A: significant inhibitory effect
